Drawing on publication PMC9466612, “Enaminone-based carboxylic acids as novel non-classical carbonic anhydrases inhibitors: design, synthesis and in vitro biological assessment” (Journal of Enzyme Inhibition and Medicinal Chemistry, 2022), this text covers Ki for 22 compounds.

Where two headings read alike, the source gives them in different places.

Holding throughout (assay): stopped-flow CO2 hydrase assay
What all share (assay type): biochemical

For experiment [1], the target named is T1, hCA II (Homo sapiens, UniProt P00918).
T1 construct: gene CA2
Particulars: read-out: KI (μM)^a / hCA I.

The target of experiment [2] is T2, hCA XII (Homo sapiens, UniProt O43570).
T2 construct: gene CA12; trans-membrane isoform
T2 sequence (O43570 30-289 limits assumed): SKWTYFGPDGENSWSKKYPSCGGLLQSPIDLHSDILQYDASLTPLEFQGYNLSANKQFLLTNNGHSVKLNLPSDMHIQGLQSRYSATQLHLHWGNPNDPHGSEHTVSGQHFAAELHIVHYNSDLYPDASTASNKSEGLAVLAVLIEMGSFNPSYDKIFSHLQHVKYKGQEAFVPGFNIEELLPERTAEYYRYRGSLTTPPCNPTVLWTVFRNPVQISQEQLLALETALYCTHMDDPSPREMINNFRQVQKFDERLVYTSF
The note with it: read-out: KI (μM)^a / hCA I.

For a further experiment, the target named is T3, hCA I (Homo sapiens, UniProt P00915).
T3 construct: gene CA1; cytosolic isoform
T3 sequence (P00915 2-261): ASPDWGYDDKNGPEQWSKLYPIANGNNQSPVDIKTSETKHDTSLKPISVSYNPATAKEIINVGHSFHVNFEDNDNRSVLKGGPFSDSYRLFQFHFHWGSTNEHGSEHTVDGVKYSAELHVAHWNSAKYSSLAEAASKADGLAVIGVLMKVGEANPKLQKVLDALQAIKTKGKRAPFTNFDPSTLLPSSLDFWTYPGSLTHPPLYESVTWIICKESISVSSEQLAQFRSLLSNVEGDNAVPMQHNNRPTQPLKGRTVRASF
The text has this: stopped-flow CO2 hydrase assay on hCA I

Experiment [3] concerns the target T4, hCA IX (Homo sapiens, UniProt Q16790).
T4 construct: gene CA9; trans-membrane isoform
The note with it: read-out: KI (μM)^a / hCA I.

Experiment [4] deals with T4, hCA IX. The text has this: stopped-flow CO2 hydrase assay on hCA IX
Experiment [5] deals with T1, hCA II. The text has this:
stopped-flow CO2 hydrase assay on hCA II

Experiment [6] addresses T2, hCA XII. The text has this: stopped-flow CO2 hydrase assay on hCA XII

For `O=C(O)CNC(=O)c1ccc(N/C=C/C(=O)c2ccc(Br)cc2)cc1` [12b], the Ki on hCA II [1], on hCA XII [2], at hCA I and on hCA IX [3] was over 100 µM throughout.
Consider `O=C(/C=C\Nc1ccccc1C(=O)O)c1ccc([N+](=O)[O-])cc1` [5d], for which the Ki on hCA IX [4] was 14.1 µM; at hCA II [5], 26.9 µM; on hCA I it was over 100 µM; at hCA XII [6], 7.8 µM.
As to `O=C(/C=C\Nc1ccccc1C(=O)O)c1ccc2ccccc2c1` [5e], the Ki was 19.3 µM on hCA IX [4], 49 µM on hCA II [5], over 100 µM on hCA I and 15.7 µM on hCA XII [6].
As for `O=C(O)c1cccc(NC=CC(=O)c2ccc([N+](=O)[O-])cc2)c1` [5j], the Ki on hCA IX [4] was 24.7 µM; at hCA II [5], 80.7 µM; on hCA I it was over 100 µM; on hCA XII [6], 8.9 µM.
Taken in the same sequence, the figures for `O=C(O)c1ccc(NC=CC(=O)c2ccc([N+](=O)[O-])cc2)cc1` [5p] were 4.1 µM, 12.6 µM, 95.6 µM and 0.85 µM.
As to `O=C(O)c1cccc(NC=CC(=O)c2ccc(Br)cc2)c1` [5i], the Ki is 32.5 µM on hCA IX [4], 81.4 µM at hCA II [5], over 100 µM at hCA I and 13.9 µM on hCA XII [6].
Taken in the same sequence, the figures for `O=C(O)c1cccc(NC=CC(=O)c2ccc(Cl)cc2)c1` [5h] were 19.2 µM, 77.1 µM, over 100 µM and 8.6 µM.
Taken in the same sequence, the figures for `O=C(/C=C\Nc1ccccc1C(=O)O)c1ccc(F)cc1` [5b] were 13.2 µM, 24.3 µM, over 100 µM and 4.3 µM.
`O=C(O)c1ccc(NC=CC(=O)c2ccc(Br)cc2)cc1` [5o]: the Ki was 5.6 µM on hCA IX [4], 15.3 µM at hCA II [5], over 100 µM on hCA I and 6.2 µM at hCA XII [6].
As for `O=C(O)CNC(=O)c1ccc(NC=CC(=O)c2ccccc2)cc1` [12a], the Ki at hCA II [1], on hCA XII [2], on hCA I and at hCA IX [3] was over 100 µM throughout.
For the compound `O=C(O)c1cccc(NC=CC(=O)c2ccc3ccccc3c2)c1` [5k], the Ki on hCA IX [4] is 11.4 µM; on hCA II [5], 92.3 µM; on hCA I, over 100 µM; at hCA XII [6], 9.7 µM.
As to `O=C(O)c1ccc(NC=CC(=O)c2ccccc2)cc1` [5l], the Ki on hCA IX [4] turned out to be 1.2 µM; on hCA II [5], 9.8 µM; at hCA I, 75.3 µM; on hCA XII [6], 0.97 µM.
In the case of `O=C(O)c1cccc(NC=CC(=O)c2ccc(F)cc2)c1` [5g], the Ki was 9.6 µM at hCA IX [4], 68.2 µM on hCA II [5], over 100 µM on hCA I and 10.3 µM at hCA XII [6].
Turning to `O=C(O)CNC(=O)c1ccc(N/C=C/C(=O)c2ccc3ccccc3c2)cc1` [12c], the Ki on hCA II [1], on hCA XII [2], on hCA I and at hCA IX [3] was over 100 µM in each case.
`O=C(O)c1cccc(NC=CC(=O)c2ccccc2)c1` [5f]: the Ki on hCA IX [4] was 15.9 µM; at hCA II [5], 72.8 µM; on hCA I it was over 100 µM; on hCA XII [6], 9.5 µM.
Consider `O=C(O)c1ccc(NC=CC(=O)c2ccc(F)cc2)cc1` [5m], for which the Ki on hCA IX [4] was 0.92 µM; on hCA II [5], 8.7 µM; on hCA I, 68.8 µM; on hCA XII [6] it was 1.1 µM.
Taken in the same sequence, the figures for `O=C(/C=C\Nc1ccccc1C(=O)O)c1ccccc1` [5a] were 10.6 µM, 39.4 µM, over 100 µM and 6.4 µM.
On to `O=C(O)c1cccc(NCCC(=O)c2ccccc2)c1` [7a, 3/4-((3-oxo-3-phenylpropyl)amino)benzoic acids 7a–b], for which the Ki on hCA IX [4] is 23.7 µM; on hCA II [5] it was 64.3 µM; at hCA I, over 100 µM; at hCA XII [6], 7.4 µM.
Taken in the same sequence, the figures for `O=C(O)c1ccc(NCCC(=O)c2ccccc2)cc1` [7b, 3/4-((3-oxo-3-phenylpropyl)amino)benzoic acids 7a–b] were 8.3 µM, 16.7 µM, 63.8 µM and 9.1 µM.
Regarding `O=C(O)c1ccc(NC=CC(=O)c2ccc(Cl)cc2)cc1` [5n], the Ki at hCA IX [4] was determined as 3.4 µM; at hCA II [5], 13.5 µM; at hCA I, 81.5 µM; at hCA XII [6] it was 4.6 µM.
In the same order, the values of `O=C(O)c1ccc(NC=CC(=O)c2ccc3ccccc3c2)cc1` [5q] are 0.76 µM, 7.4 µM, 79.4 µM and 1.5 µM.
Take `O=C(/C=C\Nc1ccccc1C(=O)O)c1ccc(Cl)cc1` [5c]: the Ki on hCA IX [4] is 17.7 µM; on hCA II [5] it was 32.7 µM; at hCA I it was over 100 µM; on hCA XII [6] it was 12.5 µM.
